According to ChEMBL document CHEMBL1201862, “PubChem BioAssay data set” (2004):
Active and inactive are the calls of the source.

Tests used:
[1] = target: T1, Replicative DNA helicase DnaB (Mycobacterium tuberculosis, UniProt P9WMR3); assay: DnaB intein splicing inhibitors, dose response, biochemical, cell-free fluorescence (AID 449749); type: functional
T1 sequence (P9WMR3 whole entry): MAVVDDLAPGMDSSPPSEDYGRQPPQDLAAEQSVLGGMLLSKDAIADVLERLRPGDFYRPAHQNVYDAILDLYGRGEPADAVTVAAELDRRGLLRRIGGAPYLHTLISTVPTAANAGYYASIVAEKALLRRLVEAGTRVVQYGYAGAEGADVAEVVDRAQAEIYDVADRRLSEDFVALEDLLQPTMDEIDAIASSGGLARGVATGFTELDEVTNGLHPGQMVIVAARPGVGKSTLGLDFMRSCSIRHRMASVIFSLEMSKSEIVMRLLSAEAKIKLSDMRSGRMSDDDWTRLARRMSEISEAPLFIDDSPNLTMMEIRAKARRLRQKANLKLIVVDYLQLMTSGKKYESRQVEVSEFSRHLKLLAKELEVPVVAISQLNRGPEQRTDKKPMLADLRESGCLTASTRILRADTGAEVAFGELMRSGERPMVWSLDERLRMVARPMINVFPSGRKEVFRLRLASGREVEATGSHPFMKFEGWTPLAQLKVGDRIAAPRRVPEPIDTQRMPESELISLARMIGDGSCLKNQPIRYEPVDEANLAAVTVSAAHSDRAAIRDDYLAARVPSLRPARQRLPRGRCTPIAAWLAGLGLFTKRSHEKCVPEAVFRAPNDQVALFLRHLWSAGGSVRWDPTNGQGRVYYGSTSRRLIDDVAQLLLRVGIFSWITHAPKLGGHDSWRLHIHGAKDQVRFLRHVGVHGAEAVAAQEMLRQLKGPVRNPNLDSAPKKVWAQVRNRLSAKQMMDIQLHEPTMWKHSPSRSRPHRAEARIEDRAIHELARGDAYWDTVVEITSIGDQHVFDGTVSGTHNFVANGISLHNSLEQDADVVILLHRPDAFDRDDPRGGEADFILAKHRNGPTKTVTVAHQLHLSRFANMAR

Protein RecA = target: T2, Protein RecA (Mycobacterium tuberculosis, UniProt P9WHJ3); assay: Fluorescence Cell-Free Homogeneous Dose Retest to Identify Inhibitors of RecA-Intein Splicing Activity. [Related pubchem assays (depositor defined):AID2097, AID2223, AID489010, AID492950]; type: functional
T2 sequence (P9WHJ3 whole entry): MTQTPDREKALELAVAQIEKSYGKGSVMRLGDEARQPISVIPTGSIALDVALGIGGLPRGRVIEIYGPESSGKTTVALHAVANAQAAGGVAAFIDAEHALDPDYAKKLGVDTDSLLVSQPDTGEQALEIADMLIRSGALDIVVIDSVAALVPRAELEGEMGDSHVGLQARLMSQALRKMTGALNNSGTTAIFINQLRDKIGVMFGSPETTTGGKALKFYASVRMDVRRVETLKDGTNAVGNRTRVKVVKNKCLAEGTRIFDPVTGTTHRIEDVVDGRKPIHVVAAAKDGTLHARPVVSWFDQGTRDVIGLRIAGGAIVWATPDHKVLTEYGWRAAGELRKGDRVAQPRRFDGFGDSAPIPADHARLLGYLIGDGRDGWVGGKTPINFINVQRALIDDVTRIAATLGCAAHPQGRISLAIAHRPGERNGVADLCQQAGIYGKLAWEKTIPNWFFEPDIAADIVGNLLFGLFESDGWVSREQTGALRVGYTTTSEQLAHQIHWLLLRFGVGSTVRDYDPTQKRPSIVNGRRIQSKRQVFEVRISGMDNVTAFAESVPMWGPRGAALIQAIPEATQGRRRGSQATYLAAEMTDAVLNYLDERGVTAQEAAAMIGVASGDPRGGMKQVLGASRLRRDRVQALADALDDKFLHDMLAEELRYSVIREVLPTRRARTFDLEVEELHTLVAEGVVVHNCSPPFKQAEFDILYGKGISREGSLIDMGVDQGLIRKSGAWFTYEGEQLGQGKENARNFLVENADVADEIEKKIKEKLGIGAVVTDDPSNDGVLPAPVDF

[2] = NIH3T3 cell viability loss – ATP luminescence, mouse fibroblasts, counter-screen, dose response (AID 2010); type: functional, cell-based;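 further: cells exposed to compound for about 90 hours before reading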
[3] = Trypanosoma cruzi growth suppression in host cells – NIH3T3 host cells, beta-gal luminescence, confirmation (AID 2044); type: functional, cell-based;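 further: intracellular parasites grown in NIH/3T3 mouse fibroblasts as host cells; luminescent beta-galactosidase reporter signal from transgenic T. cruzi replicating inside host cells; inhibitors lower the luminescence signal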
Cytochrome P450 1A2 = target: T3, Cytochrome P450 1A2 (Homo sapiens, UniProt P05177);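 further: PubChem cytochrome P450 panel assay, CYP1A2 panel member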
T3 sequence (P05177 whole entry): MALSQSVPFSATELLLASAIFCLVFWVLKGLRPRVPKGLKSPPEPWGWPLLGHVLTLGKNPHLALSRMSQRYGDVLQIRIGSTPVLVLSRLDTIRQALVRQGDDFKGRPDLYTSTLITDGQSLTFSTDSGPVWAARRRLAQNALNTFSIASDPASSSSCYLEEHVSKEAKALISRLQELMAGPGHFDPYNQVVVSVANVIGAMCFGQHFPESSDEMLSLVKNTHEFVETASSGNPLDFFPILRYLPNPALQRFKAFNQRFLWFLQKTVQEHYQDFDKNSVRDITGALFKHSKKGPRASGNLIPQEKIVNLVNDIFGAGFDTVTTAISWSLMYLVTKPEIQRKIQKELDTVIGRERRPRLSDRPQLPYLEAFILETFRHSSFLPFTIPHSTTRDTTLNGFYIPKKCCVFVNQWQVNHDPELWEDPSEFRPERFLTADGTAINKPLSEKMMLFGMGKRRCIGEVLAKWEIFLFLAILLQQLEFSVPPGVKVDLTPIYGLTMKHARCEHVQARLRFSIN

Cytochrome P450 3A4 = Cytochrome P450 3A4 (Homo sapiens, UniProt P08684);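 further: CYP3A4 tested as one member of a cytochrome P450 panel screen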
Chain of Cytochrome P450 3A4 (P08684 whole entry): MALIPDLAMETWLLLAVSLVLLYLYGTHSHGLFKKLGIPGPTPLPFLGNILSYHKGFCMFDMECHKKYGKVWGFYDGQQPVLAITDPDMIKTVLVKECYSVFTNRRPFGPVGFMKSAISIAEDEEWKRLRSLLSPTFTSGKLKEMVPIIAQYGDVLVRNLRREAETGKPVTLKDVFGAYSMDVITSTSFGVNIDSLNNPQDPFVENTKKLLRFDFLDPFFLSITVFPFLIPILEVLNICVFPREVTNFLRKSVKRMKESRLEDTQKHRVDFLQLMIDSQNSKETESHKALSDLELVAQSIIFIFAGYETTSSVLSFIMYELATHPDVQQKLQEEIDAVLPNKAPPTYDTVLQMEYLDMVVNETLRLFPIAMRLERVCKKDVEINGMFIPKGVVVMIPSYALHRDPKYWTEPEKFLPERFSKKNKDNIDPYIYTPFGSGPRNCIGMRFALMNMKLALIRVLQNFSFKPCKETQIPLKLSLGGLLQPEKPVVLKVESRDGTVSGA

Cytochrome P450 2C19 = Cytochrome P450 2C19 (Homo sapiens, UniProt P33261); assay: Cytochrome panel assay with activity outcomes. Panel member name: p450-cyp2c19 Compounds with AC50 equal or less than 10 uM are considered active; type: functional
Chain of Cytochrome P450 2C19 (P33261 whole entry): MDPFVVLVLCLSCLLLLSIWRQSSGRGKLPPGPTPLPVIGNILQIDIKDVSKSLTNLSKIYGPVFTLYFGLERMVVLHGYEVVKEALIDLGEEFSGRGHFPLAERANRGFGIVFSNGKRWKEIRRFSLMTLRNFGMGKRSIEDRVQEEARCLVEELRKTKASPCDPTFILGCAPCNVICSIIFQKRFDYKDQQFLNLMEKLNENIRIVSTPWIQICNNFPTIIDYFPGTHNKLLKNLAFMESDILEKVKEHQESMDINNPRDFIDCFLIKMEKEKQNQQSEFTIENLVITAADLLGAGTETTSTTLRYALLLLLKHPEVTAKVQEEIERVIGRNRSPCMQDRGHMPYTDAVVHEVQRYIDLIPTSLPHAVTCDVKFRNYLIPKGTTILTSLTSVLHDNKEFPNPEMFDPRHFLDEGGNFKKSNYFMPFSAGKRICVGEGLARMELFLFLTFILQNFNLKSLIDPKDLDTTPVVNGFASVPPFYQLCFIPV

Cytochrome P450 2D6 = Cytochrome P450 2D6 (Homo sapiens, UniProt P10635);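 further: CYP2D6 member of a cytochrome P450 panel assay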
Chain of Cytochrome P450 2D6 (P10635 whole entry): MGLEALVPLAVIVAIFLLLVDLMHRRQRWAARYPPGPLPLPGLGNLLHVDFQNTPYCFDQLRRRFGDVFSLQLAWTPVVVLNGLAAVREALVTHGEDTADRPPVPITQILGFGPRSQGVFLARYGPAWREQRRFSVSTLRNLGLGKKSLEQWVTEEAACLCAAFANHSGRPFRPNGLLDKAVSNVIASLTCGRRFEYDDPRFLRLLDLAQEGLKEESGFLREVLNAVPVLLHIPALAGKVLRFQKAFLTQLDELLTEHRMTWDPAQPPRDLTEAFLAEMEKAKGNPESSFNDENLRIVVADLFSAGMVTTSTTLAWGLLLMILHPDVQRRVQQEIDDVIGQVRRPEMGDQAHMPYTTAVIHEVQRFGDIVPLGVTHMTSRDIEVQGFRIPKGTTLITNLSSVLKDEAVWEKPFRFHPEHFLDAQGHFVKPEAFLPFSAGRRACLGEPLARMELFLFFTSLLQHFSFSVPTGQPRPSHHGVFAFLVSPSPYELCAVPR

[4] = target: T4, Corticotropin-releasing factor receptor 2/Corticotropin-releasing factor-binding protein (Homo sapiens, UniProt P24387+Q13324); assay: activators of CRF receptor 2 with binding protein – uHTS hits, confirmation (AID 602473); type: functional; settings: read-out: EC50_Mean
T4 sequence (Q13324 whole entry): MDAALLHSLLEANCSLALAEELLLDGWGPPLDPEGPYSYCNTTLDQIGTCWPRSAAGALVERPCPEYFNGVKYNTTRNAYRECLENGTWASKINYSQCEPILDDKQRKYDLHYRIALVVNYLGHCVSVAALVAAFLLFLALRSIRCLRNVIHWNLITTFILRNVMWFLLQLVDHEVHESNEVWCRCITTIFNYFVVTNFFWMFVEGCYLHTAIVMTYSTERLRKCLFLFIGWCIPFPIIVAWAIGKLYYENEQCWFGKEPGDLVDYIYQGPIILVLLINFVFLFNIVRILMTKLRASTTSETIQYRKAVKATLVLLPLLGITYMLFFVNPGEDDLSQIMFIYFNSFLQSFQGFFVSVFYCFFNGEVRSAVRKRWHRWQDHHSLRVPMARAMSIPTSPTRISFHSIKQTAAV
T4 sequence (P24387 whole entry): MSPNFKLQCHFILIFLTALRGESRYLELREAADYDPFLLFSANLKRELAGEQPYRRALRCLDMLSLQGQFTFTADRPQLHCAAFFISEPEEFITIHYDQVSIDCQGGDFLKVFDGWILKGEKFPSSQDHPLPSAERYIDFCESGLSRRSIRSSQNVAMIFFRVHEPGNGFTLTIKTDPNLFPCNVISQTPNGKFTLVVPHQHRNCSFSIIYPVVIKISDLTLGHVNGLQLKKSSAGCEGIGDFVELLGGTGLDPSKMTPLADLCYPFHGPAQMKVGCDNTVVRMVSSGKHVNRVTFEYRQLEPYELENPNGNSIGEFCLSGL

SMILES: CCOc1ccc(CN(C)C(=O)CCl)cc1
- AC50 [1]: > 380 µM (inactive)
- EC50 (Protein RecA): 4.09 µM (active)

SMILES: Cc1cc(C(=O)CCl)c(C)n1CC1COc2ccccc2O1 (stereo not drawn)
- AC50 [1]: 21.7 µM (active)
- EC50 (Protein RecA): 13.5 µM (active)
- EC50 [2]: 4.42 µM (active)
- EC50 [3]: 1.81 µM (active)

SMILES: O=C(Nc1cccc(F)c1)N1CC[C@@]2(CCCN(C(=O)c3ccco3)C2)C1
- AC50 (Cytochrome P450 1A2): 25.1 µM (inconclusive)
- AC50 (Cytochrome P450 3A4): 10 µM (inconclusive)

SMILES: O=C(Cc1cc(O)n[nH]1)N/N=C/c1ccccc1[N+](=O)[O-]
- AC50 [1]: 4.19 µM (active)
- EC50 (Protein RecA): 1.73 µM (active)

SMILES: CCOc1cc(NC(=O)c2ccccc2[N+](=O)[O-])c(OCC)cc1NC(=O)CC(C)C
- AC50 (Cytochrome P450 2C19; read-out: AC50): 0.0112 µM (inconclusive)

SMILES: CCOC(=O)N1C(=O)[C@](c2ccc(Cl)cc2)(C(C)C)N1C(=O)OCC
- AC50 [1]: 3.09 µM (active)
- EC50 (Protein RecA): 3.34 µM (active)

SMILES: CCCCNC(=O)CCn1c(=S)[nH]c2cc3c(cc2c1=O)OCO3
- AC50 (Cytochrome P450 2C19; read-out: AC50): 3.55 µM (inconclusive)

SMILES: CN1CCN(c2ncc3nc(-c4cccs4)c(=O)n(CCC#N)c3n2)CC1
- AC50 (Cytochrome P450 1A2): 15.8 µM (inconclusive)
- AC50 (Cytochrome P450 3A4): 31.6 µM (inconclusive)

SMILES: CN1CCC(n2[nH]c(-c3ccccc3)c(Cc3ccccc3)c2=O)CC1 [BENZPIPERYLON]
- AC50 (Cytochrome P450 2D6): 3.16 µM (inconclusive)
- AC50 (Cytochrome P450 1A2): 1.58 µM (inconclusive)

SMILES: COC(=O)[C@@]1(Cc2ccccc2)[C@H]2c3cc(C(=O)N4CCCC4)n(Cc4cccc5ccccc45)c3C[C@H]2CN1C(=O)c1ccccc1
- AC50 (Cytochrome P450 1A2): 15.8 µM (inconclusive)

SMILES: NS(=O)(=O)c1cc2c(cc1Cl)N[C@H](Cc1ccccc1)NS2(=O)=O
- AC50 (Cytochrome P450 1A2): 3.16 µM (inconclusive)

SMILES: Cn1c(CN2CCOCC2)nnc1SCc1ccccc1
- AC50 (Cytochrome P450 2C19; read-out: AC50): 20 µM (inconclusive)

SMILES: c1cncc(CNc2ncn[nH]2)c1
- AC50 (Cytochrome P450 2C19): inconclusive

SMILES: O=C(Nc1ccccc1)N1CCCC2(CCN(S(=O)(=O)c3ccccc3)CC2)C1
- AC50 (Cytochrome P450 2D6): 15.8 µM (inconclusive)
- AC50 (Cytochrome P450 1A2): 15.8 µM (inconclusive)
- AC50 (Cytochrome P450 3A4): 5.01 µM (inconclusive)

SMILES: N#Cc1c(SCC(N)=O)nsc1SCc1ccccc1Cl
- AC50 (Cytochrome P450 1A2): 4.47 µM (inconclusive)
- AC50 (Cytochrome P450 3A4): 10 µM (inconclusive)

SMILES: Cn1cc(-c2nc3cnc(Oc4cccc(Cl)c4)nc3n(C3CC3)c2=O)c2ccccc21
- AC50 (Cytochrome P450 1A2): 12.6 µM (inconclusive)

SMILES: CC1(C)[C@@H]2CC[C@]1(C)[C@@H](OC(=O)/C=C\c1ccccc1)C2
- AC50 (Cytochrome P450 2C19; read-out: AC50): 0.00398 µM (inconclusive)

SMILES: Cc1ccc(C2CC(c3cccs3)=NN2C(=O)CSC2=NCCS2)cc1 (stereo not drawn)
- AC50 [1]: 6.2 µM (active)
- EC50 (Protein RecA): 6.68 µM (active)

SMILES: Cc1nn(-c2ccccc2)c2c1C(c1ccc(F)cc1F)C(C#N)=C(N)O2 (stereo not drawn)
- AC50 [1]: 7.25 µM (active)
- EC50 (Protein RecA): 3.5 µM (active)

SMILES: COc1ccc(N(C(=O)c2ccco2)S(=O)(=O)c2cccs2)cc1
- AC50 [1]: 38.1 µM (active)
- EC50 (Protein RecA): 32.6 µM (active)

SMILES: CC(C)[C@@H]1[C@H]2CC[C@H](C2)[C@H]1N
- AC50 (Cytochrome P450 1A2): 31.6 µM (inconclusive)
- AC50 (Cytochrome P450 3A4): 15.8 µM (inconclusive)

SMILES: C=CC[C@@H](C(=O)O)c1ccccc1
- AC50 (Cytochrome P450 2C19): inconclusive

SMILES: N#CC1(C#N)CC(C=O)=C(N)C1(C#N)CC(=O)C12CC3CC(CC(C3)C1)C2 (stereo not drawn)
- AC50 [1]: > 380 µM (inactive)
- EC50 (Protein RecA): 10 µM (active)

SMILES: COC(=O)c1ccccc1Oc1c(F)c(F)nc(N2CCOCC2)c1F
- AC50 (Cytochrome P450 2D6): 35.5 µM (inconclusive)
- AC50 (Cytochrome P450 1A2): 28.2 µM (inconclusive)

SMILES: Cc1ccc(C2(c3ccc(C)c(O)c3C)CCN(C)CC2)c(C)c1O
- AC50 (Cytochrome P450 1A2): 5.01 µM (inconclusive)

SMILES: CC(C)Cn1c(N)c(S(=O)(=O)c2cccs2)c2nc3ccccc3nc21
- AC50 [1]: > 380 µM (inactive)
- EC50 (Protein RecA): 32.9 µM (inconclusive)

SMILES: N#Cc1ccc(CC(=O)c2ccccc2)[nH]c1=O
- EC50 [4]: 12.2 µM (active)

SMILES: Cc1ccsc1/C=N/NC(=O)Cc1cc(O)[nH]n1
- AC50 [1]: 1.68 µM (active)
- EC50 (Protein RecA): 1.28 µM (active)

SMILES: Cc1ccc(C(=O)NC(C#N)=C(Cl)Cl)cc1
- AC50 [1]: 27.1 µM (active)
- EC50 (Protein RecA): 19.5 µM (active)

SMILES: C[C@@H](C(=O)O)c1ccc(C[C@@H]2CCCC2=O)cc1
- AC50 (Cytochrome P450 2C19): inconclusive

SMILES: CCOC(=O)CSCCOc1ccc(C=C2C(=O)NC(=O)NC2=O)cc1OC
- AC50 [1]: 46.6 µM (active)
- EC50 (Protein RecA): > 380 µM (inactive)
